Publication PMC12669672, “Structural insights into selective and dual antagonism of EP2 and EP4 prostaglandin receptors” (The EMBO Journal, 2025)
Values joined by “and” are separate entries in the source; they are usually repeats but may differ in a detail not shown here. Identical values can stand only once.

How the values were obtained:
Assay type in all cases: cell-based
[1] = target: T1, EP2-M116L (Homo sapiens, UniProt P43116, M116L); test: GloSensor cAMP assay, antagonism of PGE2-induced cAMP, chimeric studies; settings: single experiments 1st-3rd
T1 construct: The full-length EP2 or EP4 was cloned into the pcDNA3.1 vector; FLAG (N); expressed in transfected cells; host or cells: AD293 cells
Method: (§1) The full-length EP2 or EP4 was cloned into the pcDNA3.1 vector (Invitrogen), incorporating an N-terminal FLAG tag. AD293 cells were seeded in six-well plates containing DMEM supplemented with 10% dialyzed FBS 1 day prior to transfection. Following overnight growth, cells were transfected with a 1:1 ratio of receptor construct and GloSensor22F cAMP biosensor (Promega) plasmids.
(§2) Twenty-four hours post-transfection, the cells were transferred to CO2-independent media containing 2% GloSensor cAMP Reagent (Promega) and distributed into 384-well assay plates at a density of 4000 cells per well in 10 μL. […] The plates were then incubated at 37 °C for an additional hour before luminescence measurements were taken using an EnVision plate reader.
(§3) Data analysis was performed using GraphPad Prism software v8.0.1. A nonlinear regression analysis, employing a sigmoidal dose–response model, was conducted to determine the Emax values and half-maximum inhibitory concentrations (IC50) for each compound tested.

[2] = target: T2, EP2-I85V (Homo sapiens, UniProt P43116, I85V); test: as above; settings: single experiments 1st-3rd
T2 construct: The full-length EP2 or EP4 was cloned into the pcDNA3.1 vector; FLAG (N); expressed in transfected cells; host or cells: AD293 cells
Method: as §1, §2, §3

[3] = target: T3, EP2-L301I (Homo sapiens, UniProt P43116, L301I); test: as above; settings: single experiments 1st-3rd
T3 construct: The full-length EP2 or EP4 was cloned into the pcDNA3.1 vector; FLAG (N); expressed in transfected cells; host or cells: AD293 cells
Method: as §1, §2, §3

[4] = target: T4, constitutively active EP2 S308A (Homo sapiens, UniProt P43116, S308A); test: GloSensor cAMP assay, inhibition of constitutive activity
T4 construct: The full-length EP2 or EP4 was cloned into the pcDNA3.1 vector; FLAG (N); expressed in transfected cells; host or cells: AD293 cells
Method: as §1, §2, §3

[5] = target: T5, constitutively active EP2 WT (Homo sapiens, UniProt P43116); test: as above
T5 construct: The full-length EP2 or EP4 was cloned into the pcDNA3.1 vector; FLAG (N); expressed in transfected cells; host or cells: AD293 cells
Method: as §1, §2, §3

[6] = target: T6, constitutively active EP2 S305A (Homo sapiens, UniProt P43116, S305A); test: as above; settings: for cAMP activity (∆pIC50 from EP2 WT): PF-04418948, S305A
T6 construct: The full-length EP2 or EP4 was cloned into the pcDNA3.1 vector; FLAG (N); expressed in transfected cells; host or cells: AD293 cells
Method: as §1, §2, §3

[7] = target: T7, constitutively active EP2 S86A (Homo sapiens, UniProt P43116, S86A); test: as above; settings: for cAMP activity (∆pIC50 from EP2 WT): PF-04418948, S86A
T7 construct: The full-length EP2 or EP4 was cloned into the pcDNA3.1 vector; FLAG (N); expressed in transfected cells; host or cells: AD293 cells
Method: as §1, §2, §3

[8] = target: T8, constitutively active EP2 M116A (Homo sapiens, UniProt P43116, M116A); test: as above
T8 construct: The full-length EP2 or EP4 was cloned into the pcDNA3.1 vector; FLAG (N); expressed in transfected cells; host or cells: AD293 cells
Method: as §1, §2, §3

[9] = target: T9, constitutively active EP2 T82A (Homo sapiens, UniProt P43116, T82A); test: as above
T9 construct: The full-length EP2 or EP4 was cloned into the pcDNA3.1 vector; FLAG (N); expressed in transfected cells; host or cells: AD293 cells
Method: as §1, §2, §3

[10] = target: T10, constitutively active EP2 W186A (Homo sapiens, UniProt P43116, W186A); test: as above
T10 construct: The full-length EP2 or EP4 was cloned into the pcDNA3.1 vector; FLAG (N); expressed in transfected cells; host or cells: AD293 cells
Method: as §1, §2, §3

[11] = 1 h, ligand log([M]) -5, Fig. S7B, read-out: % cAMP activity (normalized to WT)
[12] = 1 h, ligand log([M]) -6, Fig. S7B, read-out: % cAMP activity (normalized to WT)
[13] = 1 h, ligand log([M]) -7, Fig. S7B, read-out: % cAMP activity (normalized to WT)
[14] = 1 h, ligand log([M]) -8, Fig. S7B, read-out: % cAMP activity (normalized to WT)
[15] = 1 h, ligand log([M]) -9, Fig. S7B, read-out: % cAMP activity (normalized to WT)
[16] = 1 h, ligand log([M]) -10, Fig. S7B, read-out: % cAMP activity (normalized to WT)
[17] = 1 h, ligand log([M]) -12, Fig. S7B, read-out: % cAMP activity (normalized to WT)
[18] = 1 h, PF-04418948 log([M]) -8.00, read-out: % cAMP activity (normalized to WT)
[19] = 1 h, PF-04418948 log([M]) -9.00, read-out: % cAMP activity (normalized to WT)
[20] = 1 h, PF-04418948 log([M]) -10.00, read-out: % cAMP activity (normalized to WT)
[21] = 1 h, PF-04418948 log([M]) -11.00, read-out: % cAMP activity (normalized to WT)
[22] = 1 h, PF-04418948 log([M]) -12.00, read-out: % cAMP activity (normalized to WT)
[23] = no PGE2, pIC50 mutant - pIC50 WT, mean
[24] = 1 h, PF-04418948 log([M]) -5.00, read-out: % cAMP activity (normalized to WT)
[25] = 1 h, PF-04418948 log([M]) -6.00, read-out: % cAMP activity (normalized to WT)

T10 sequence (P43116 whole entry W186A): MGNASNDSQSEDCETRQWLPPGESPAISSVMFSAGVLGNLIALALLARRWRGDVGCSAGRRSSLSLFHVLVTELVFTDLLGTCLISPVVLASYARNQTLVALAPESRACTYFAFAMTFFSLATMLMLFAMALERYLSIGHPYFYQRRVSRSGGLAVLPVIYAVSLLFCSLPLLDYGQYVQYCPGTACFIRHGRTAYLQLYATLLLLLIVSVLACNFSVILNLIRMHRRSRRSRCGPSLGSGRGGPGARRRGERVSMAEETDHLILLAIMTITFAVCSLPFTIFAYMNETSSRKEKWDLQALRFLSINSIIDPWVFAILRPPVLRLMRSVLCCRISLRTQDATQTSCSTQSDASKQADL
T1 sequence (P43116 whole entry M116L): as the sequence (P43116 whole entry W186A) above, with M116L, A186W counted along it
T8 sequence (P43116 whole entry M116A): as the sequence (P43116 whole entry W186A) above, with M116A, A186W counted along it
T7 sequence (P43116 whole entry S86A): as the sequence (P43116 whole entry W186A) above, with S86A, A186W counted along it
T3 sequence (P43116 whole entry L301I): as the sequence (P43116 whole entry W186A) above, with A186W, L301I counted along it
T2 sequence (P43116 whole entry I85V): as the sequence (P43116 whole entry W186A) above, with I85V, A186W counted along it
T4 sequence (P43116 whole entry S308A): as the sequence (P43116 whole entry W186A) above, with A186W, S308A counted along it
T5 sequence (P43116 whole entry): as the sequence (P43116 whole entry W186A) above, with A186W counted along it
T6 sequence (P43116 whole entry S305A): as the sequence (P43116 whole entry W186A) above, with A186W, S305A counted along it
T9 sequence (P43116 whole entry T82A): as the sequence (P43116 whole entry W186A) above, with T82A, A186W counted along it

- remaining activity at 10 µM [1, 11]: 11.8%
- remaining activity at 1 µM [1, 12]: 12%
- remaining activity at 0.1 µM [1, 13]: 36.7%
- remaining activity at 0.01 µM [1, 14]: 98.5%
- remaining activity at 0.001 µM [1, 15]: 132%
- remaining activity at 0.0001 µM [1, 16]: 123%
- remaining activity at 1 pM [1, 17]: 116%
- cAMP activity (∆pIC50 from EP2 WT) ([1]; Appendix Fig. S7A): -0.408 and -0.463 and -0.307
- remaining activity at 10 µM [2, 11]: 4.76%
- remaining activity at 1 µM [2, 12]: 5.53%
- remaining activity at 0.1 µM [2, 13]: 21.6%
- remaining activity at 0.01 µM [2, 14]: 78.7%
- remaining activity at 0.001 µM [2, 15]: 105%
- remaining activity at 0.0001 µM [2, 16]: 94.6%
- remaining activity at 10 pM ([2]; 1 h, ligand log([M]) -11, Fig. S7B, read-out: % cAMP activity (normalized to WT)): 103%
- remaining activity at 1 pM [2, 17]: 91.7%
- cAMP activity (∆pIC50 from EP2 WT) ([2]; Appendix Fig. S7A): -0.301 and -0.398 and -0.280
- remaining activity at 10 µM [3, 11]: 20%
- remaining activity at 1 µM [3, 12]: 51.7%
- remaining activity at 0.1 µM [3, 13]: 121%
- remaining activity at 0.01 µM [3, 14]: 112%
- remaining activity at 0.001 µM [3, 15]: 117%
- remaining activity at 0.0001 µM [3, 16]: 113%
- remaining activity at 1 pM [3, 17]: 108%
- cAMP activity (∆pIC50 from EP2 WT) ([3]; Appendix Fig. S7A): -1.743 and -1.549 and -1.608
- remaining activity at 0.01 µM [4, 18]: 45.3%
- remaining activity at 0.001 µM [4, 19]: 80.9%
- remaining activity at 0.0001 µM [4, 20]: 93%
- remaining activity at 10 pM [4, 21]: 84.1%
- remaining activity at 1 pM [4, 22]: 68.1%
- cAMP activity (∆pIC50 from EP2 WT) ([4]; PF-04418948, S308A, Mean): -0.283
- ΔpIC50 [4, 23]: -0.28 ± 0.10
- remaining activity at 0.1 µM ([5]; 1 h, PF-04418948 log([M]) -7.00, read-out: % cAMP activity (normalized to WT)): 10.6%
- remaining activity at 0.01 µM [5, 18]: 44.6%
- remaining activity at 0.001 µM [5, 19]: 89.9%
- remaining activity at 0.0001 µM [5, 20]: 92.4%
- remaining activity at 10 pM [5, 21]: 102%
- remaining activity at 1 pM [5, 22]: 104%
- cAMP activity (∆pIC50 from EP2 WT) ([5]; PF-04418948, WT, single experiments 1st-3rd): -0.051 and 0.118 and -0.068
- cAMP activity (∆pIC50 from EP2 WT) ([6]; Mean): -1.012
- cAMP activity (∆pIC50 from EP2 WT) ([6]; single experiments 1st-3rd): -1.044 and -1.010 and -0.982
- ΔpIC50 [6, 23]: -1.01 ± 0.02
- remaining activity at 10 µM [7, 24]: 14.6%
- remaining activity at 1 µM [7, 25]: 35.7%
- cAMP activity (∆pIC50 from EP2 WT) ([7]; Mean): -0.316
- cAMP activity (∆pIC50 from EP2 WT) ([7]; single experiments 1st-3rd): -0.355 and -0.329 and -0.263
- remaining activity at 10 µM [8, 24]: 5.6%
- remaining activity at 1 µM [8, 25]: 38.1%
- remaining activity at 0.0001 µM [8, 20]: 245%
- remaining activity at 10 pM [8, 21]: 252%
- cAMP activity (∆pIC50 from EP2 WT) ([8]; PF-04418948, M116A, Mean): -1.518
- ΔpIC50 [8, 23]: -1.52 ± 0.12
- remaining activity at 0.0001 µM [9, 20]: 302%
- remaining activity at 1 pM [9, 22]: 299%
- cAMP activity (∆pIC50 from EP2 WT) ([9]; PF-04418948, T82A, Mean): -0.369
- ΔpIC50 [9, 23]: -0.37 ± 0.10
- remaining activity at 1 µM [10, 25]: 49.1%
- remaining activity at 0.01 µM [10, 18]: 95.7%
- remaining activity at 0.001 µM [10, 19]: 94.5%
- remaining activity at 0.0001 µM [10, 20]: 103%
- remaining activity at 10 pM [10, 21]: 108%
- remaining activity at 1 pM [10, 22]: 90.9%
- cAMP activity (∆pIC50 from EP2 WT) ([10]; PF-04418948, W186A, Mean): -2.049
- ΔpIC50 [10, 23]: -2.05 ± 0.09
Structure (SMILES): COc1ccc2cc(OCC3(C(=O)O)CN(C(=O)c4ccc(F)cc4)C3)ccc2c1 [PF-04418948]
